Source: article PMC4157868, “Real-Time Analysis of Imatinib- and Dasatinib-Induced Effects on Chronic Myelogenous Leukemia Cell Interaction with Fibronectin” (PLoS ONE, 2014)

Columns and labels:
[1] = system: JURL-MK1 cells on fibronectin; details: cited from earlier work
[2] = system: active SFKs in MOLM-7 cells; assay: immunofluorescence of phospho-SFK in adhesion sites; format: cell-based, human; details: MOLM-7 on fibronectin
Description: The cells were plated on fibronectin coated coverslips or glass bottom dishes, incubated for 60 minutes in CO2 incubator, fixed with 2% paraformaldehyde, permeabilized in 0.3% Triton/PBS and incubated with anti-phospho-SRC family primary antibody and a secondary antibody (Alexa Fluor 488 Goat Anti-Rabbit). F-actin was labeled with rhodamine phalloidin (Molecular Probes). Samples were analyzed using an Olympus Fluoview FV1000 confocal laser scanning microscope.
To support our hypothesis that SFKs may be involved in regulation of cell interaction with fibronectin, we studied the intracellular localization of active SFKs using the phospho-specific anti-SFK antibody. […] In JURL-MK1 cells, the active SFKs were found mainly in the contours of cell-surface contact areas and their localization to the sites of the closest contact was less evident due to different morphology (Figure 8B). […] As the main SFKs in JURL-MK1 and MOLM-7 were LYN and LYN+LCK, respectively, we also analyzed the intracellular localization of these individual kinases.
(PDF) Click here for additional data file.

[3] = system: JURL-MK1 cells on fibronectin; assay: kinetics of JURL-MK1 cell adhesivity to fibronectin (adherent cell fraction); format: cell-based, human
Description: Supplementary file pone.0107367.s001.pdf: Figure S1 Kinetics of dasatinib-induced cell death and changes in cell adhesivity to fibronectin. […] Cell fraction in sub-G1 region of cell cycle phase distribution in samples stained with propidium iodide. […] (PDF) Click here for additional data file.

[4] = system: HEL and JURKAT cells on fibronectin; assay: real-time microimpedance, cell interaction with fibronectin, BCR-ABL-negative cells; format: cell-based, human; details: low-dose (several nM) dasatinib
Description: (§1) (PPTX) Click here for additional data file.
as §1

[5] = system: JURL-MK1 and MOLM-7 cells on fibronectin; assay: real-time microimpedance, cell interaction with fibronectin, BCR-ABL-positive cells; format: cell-based, human; details: dasatinib 100 nM, clinically relevant dose
Description: RTCA xCELLigence DP system (Acea Biosciences, San Diego, CA, U.S.A.) was placed in an incubator (at 37°C) with 5% CO2 content. […] The microimpedance signal (cell index) was set to zero in these conditions. […] DMSO (0.1%) was also added to control wells.
Cells were seeded into E-plates and incubated for 1–2 h to allow for cell attachment to the coated cell bottom. After signal stabilization, the drug was added in a small drop while the corresponding solvent was added to control wells as any mechanical perturbation usually produced minor changes, too.
The cells (6×10^4 per well) were seeded into fibronectin-coated E-plates. After the microimpedance signal stabilization, the appropriate inhibitor was added in triplets. […] Microimpedance signal (cell index) was normalized to 1 at the time of inhibitor addition.

[6] = system: JURL-MK1 and MOLM-7 cells on fibronectin; assay: end-point adherent cell fraction on fibronectin-coated wells
Description: Briefly, the cells (1×10^4) were seeded into fibronectin-coated wells on a microtitration plate and incubated for 1 h at 37°C. Then, the cells were washed wih PBS/Ca^2+/Mg^2+ and the remaining cells were quantified by means of fluorescent labelling (CyQuant Cell Proliferation Assay Kit; Molecular Probes). The adherent cell fraction (ACF) was calculated using the fluorescence signal from fibronectin-coated plate and the signal obtained from a reference plate that contained the total cell number.

[7] = system: JURL-MK1 and MOLM-7 cells; assay: apoptosis onset: caspase activation (Ac-DEVD-AFC), Annexin V staining; format: cell-based, human

CC(C)(C)n1nc(-c2ccc(Cl)cc2)c2c(N)ncnc21 [PP2]
effect on JURL-MK1 cell adhesivity to FN ([1]; PP2, recently reported by the authors): increases JURL-MK1 cell adhesivity to FN
phospho-SFK fluorescent signal at adhesion sites ([2]; 10 µM PP2, 30 min): The same effect was also reached

Cc1ccc(NC(=O)c2ccc(CN3CCN(C)CC3)cc2)cc1Nc1nccc(-c2cccnc2)n1 [imatinib]
cell fraction adhering to FN ([1]; imatinib, first several hours of treatment, JURL-MK1): the cell fraction adhering to FN increased

CC(C)[C@H](NC(=O)c1ccc2ccccc2n1)C(=O)N[C@@H](CC(=O)O)C(=O)COc1c(F)cccc1F [Q-VD-OPh]
effect on the dasatinib-induced decrease of cell adhesivity to fibronectin ([3]; 10 µM Q-VD-OPh added together with 2 nM dasatinib, 24 h): This decrease was prevented

Cc1nc(Nc2ncc(C(=O)Nc3c(C)cccc3Cl)s2)cc(N2CCN(CCO)CC2)n1 [dasatinib]
change of cell binding to fibronectin [4]: no significant change
effect on CML cell binding to fibronectin [5]: almost no effect
change in number of cells attached to fibronectin ([6]; dasatinib 1 to 10 nM, JURL-MK1 and MOLM-7): mild increase in the number of attached cells
change in CML cell binding to fibronectin ([6]; dasatinib at therapeutic concentrations (100 nM)): does not enhance CML cell binding to fibronectin
cell adhesivity to fibronectin after 24 h treatment ([3]; dasatinib 2 nM): cell adhesivity to fibronectin lowered
number of early apoptotic cells, Annexin V staining ([7]; 10 nM dasatinib, 6 h, JURL-MK1 and MOLM-7): no significant increase in the number of early apoptotic cells
time of treatment at which caspases became activated ([7]; dasatinib 10 nM): about 6 h
phospho-SFK fluorescent signal at adhesion sites ([2]; 100 nM dasatinib, 30 min): complete disappearance of the green fluorescent signal from adhesion sites
